These are literature values, as cited in paper PMC8739290, “A phase 1b study of erlotinib and momelotinib for the treatment of EGFR-mutated, tyrosine kinase inhibitor-naive metastatic non-small cell lung cancer” (Cancer Chemotherapy and Pharmacology, 2021).

Data set [1] has as its system PC-9 xenograft tumors and EGFR-mutant transgenic mice. The arrangement: method as in PMID 24238495. As to conditions: cited from earlier work.
The test system of a further data set is EGFR-mutated NSCLC lines. The arrangement: method as in PMID 18060032. As to conditions: multiple EGFR-mutated NSCLC lines; cited from earlier work.
The test system of the next data set is HCC827 xenograft model. The arrangement: method as in doi:10.1158/1538-7445.AM2018-2938. As to conditions: cited from earlier work.

As for `Cc1cc(Nc2nc(N[C@@H](C)c3ncc(F)cn3)ncc2Cl)n[nH]1` [AZD1480], the single-agent activity result in data set [1] (PC-9 xenograft tumors and EGFR-mutant transgenic mice) was “independent activity”. Moreover, in data set [1], the “number of lung tumors” value is given as “decreased number of lung tumors” and the overall survival entry is given as “improved overall survival”.

As for `CC(C)(C)c1nc2c3ccc(F)cc3c3c(=O)[nH]ccc3c2[nH]1` [P6], in the data set with EGFR-mutated NSCLC lines, the “effect on cell cycle” value is on record as “cell-cycle arrest at the G2/M phase”, the “effect on colony formation” value is “suppressed colony formation” and the “effect on phosphorylated-STAT3 (pSTAT3)” value is on record as “uniformly abrogated pSTAT3”.

In the case of `N#CCC1(n2cc(-c3ncnc4[nH]ccc34)cn2)CN(C2CCN(C(=O)c3ccnc(C(F)(F)F)c3F)CC2)C1` [itacitinib], the single-agent activity entry with HCC827 xenograft model (HCC827 xenograft model) is “independent activity”. In the data set on HCC827 xenograft model (itacitinib in combination with erlotinib or osimertinib), the “tumor growth inhibition in combination” value was “synergistic tumor growth inhibition”.
